For assay [1], the target named is T1, Discoidin domain-containing receptor 2 (Homo sapiens, UniProt Q16832).
T1 sequence (Q16832 whole entry): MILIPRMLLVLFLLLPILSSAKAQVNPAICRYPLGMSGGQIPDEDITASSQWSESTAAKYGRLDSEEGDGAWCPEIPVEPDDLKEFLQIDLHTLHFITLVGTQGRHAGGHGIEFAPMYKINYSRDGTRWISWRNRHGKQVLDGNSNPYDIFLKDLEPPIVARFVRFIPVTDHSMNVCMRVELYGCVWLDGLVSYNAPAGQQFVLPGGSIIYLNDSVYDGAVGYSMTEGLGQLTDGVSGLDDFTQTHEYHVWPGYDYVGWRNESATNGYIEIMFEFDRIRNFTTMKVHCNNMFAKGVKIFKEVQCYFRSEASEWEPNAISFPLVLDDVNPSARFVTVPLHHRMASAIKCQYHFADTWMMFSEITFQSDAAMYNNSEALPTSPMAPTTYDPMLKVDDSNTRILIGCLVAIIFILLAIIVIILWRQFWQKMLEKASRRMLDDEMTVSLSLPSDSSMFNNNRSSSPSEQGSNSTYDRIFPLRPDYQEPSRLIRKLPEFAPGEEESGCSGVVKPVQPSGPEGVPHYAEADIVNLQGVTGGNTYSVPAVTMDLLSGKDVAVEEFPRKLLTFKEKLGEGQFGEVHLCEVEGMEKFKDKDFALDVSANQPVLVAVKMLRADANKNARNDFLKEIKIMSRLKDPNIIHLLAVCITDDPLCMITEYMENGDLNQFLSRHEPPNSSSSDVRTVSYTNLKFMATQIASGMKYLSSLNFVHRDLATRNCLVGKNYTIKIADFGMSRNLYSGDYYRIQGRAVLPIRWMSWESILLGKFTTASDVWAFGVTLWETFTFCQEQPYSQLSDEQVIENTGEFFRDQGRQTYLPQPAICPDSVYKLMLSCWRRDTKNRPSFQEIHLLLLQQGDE
Description: Inhibition of wild type DDR2 (unknown origin) preincubated for 30 mins before substrate addition by FRET assay

Assay [2] concerns the target Epithelial discoidin domain-containing receptor 1 (Homo sapiens, UniProt Q08345). The assay can be described thus: Inhibition of DDR1 (unknown origin) after 120 mins by radiometric assay in presence of gamma-[33P]-ATP.
For assay [3], the target named is T1, Discoidin domain-containing receptor 2. Description: Inhibition of DDR2 (unknown origin) after 120 mins by radiometric assay in presence of gamma-[33P]-ATP.
The target is the same in assay [4]. This is another data set of the same source.
Description: Binding affinity to human acrylodan-labeled N-terminal His-tagged DDR2 (558 to 855 aa) by FLiK assay
The target in assay [5] is Discoidin domain-containing receptor 2 (Homo sapiens, UniProt Q16832, T654M). Description: Inhibition of DDR2 T654M mutant (unknown origin) preincubated for 30 mins before substrate addition by FRET assay.
The target of assay [6] is T1, Discoidin domain-containing receptor 2. Description: Binding affinity to human acrylodan-labeled N-terminal His-tagged DDR2 (558 to 855 aa) by fluorescence spectroscopy.
Assay [7] has the same target. Description: Binding affinity to human DDR2 by Ambit assay.
The target of assay [8] is T2, Discoidin domain-containing receptor 2 (Homo sapiens) (UniProt Q16832).
T2 sequence (whole entry): T1 sequence (Q16832 whole entry)
The assay can be described thus: Reversible binding affinity to human acrylodan-labeled N-terminal His-tagged DDR2 (558 to 855 aa) at 100 nM by fluorescence spectroscopy.

Each structure is given as a SMILES string. The source made the active and inactive calls. The calls are words filed in the database; no cut-off is given here.

Discoidin domain-containing receptor 2 (Homo sapiens, UniProt Q16832, T654M), sequence (Q16832 22-855 T654M limits assumed): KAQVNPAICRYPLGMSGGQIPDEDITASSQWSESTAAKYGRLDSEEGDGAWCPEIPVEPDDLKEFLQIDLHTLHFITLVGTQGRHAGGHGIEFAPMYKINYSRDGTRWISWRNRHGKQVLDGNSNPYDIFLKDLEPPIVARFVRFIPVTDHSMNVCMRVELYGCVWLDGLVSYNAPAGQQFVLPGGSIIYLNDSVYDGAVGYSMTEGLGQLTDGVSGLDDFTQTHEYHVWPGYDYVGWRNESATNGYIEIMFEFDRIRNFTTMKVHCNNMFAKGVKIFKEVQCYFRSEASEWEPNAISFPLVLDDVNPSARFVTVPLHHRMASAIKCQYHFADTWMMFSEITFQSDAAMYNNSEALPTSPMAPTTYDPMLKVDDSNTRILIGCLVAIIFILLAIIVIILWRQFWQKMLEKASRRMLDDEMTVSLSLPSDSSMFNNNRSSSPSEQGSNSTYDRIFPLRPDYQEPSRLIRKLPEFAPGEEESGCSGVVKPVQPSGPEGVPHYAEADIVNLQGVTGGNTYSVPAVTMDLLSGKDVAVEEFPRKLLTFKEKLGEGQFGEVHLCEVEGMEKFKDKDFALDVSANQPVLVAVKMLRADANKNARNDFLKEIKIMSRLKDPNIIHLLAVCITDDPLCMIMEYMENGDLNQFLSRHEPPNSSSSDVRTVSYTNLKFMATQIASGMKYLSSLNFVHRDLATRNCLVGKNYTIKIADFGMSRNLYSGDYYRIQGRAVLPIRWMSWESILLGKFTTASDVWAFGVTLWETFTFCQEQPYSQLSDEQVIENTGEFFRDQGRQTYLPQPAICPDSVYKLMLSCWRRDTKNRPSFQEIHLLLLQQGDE
Epithelial discoidin domain-containing receptor 1, sequence (Q08345 whole entry, the tested form may be a part): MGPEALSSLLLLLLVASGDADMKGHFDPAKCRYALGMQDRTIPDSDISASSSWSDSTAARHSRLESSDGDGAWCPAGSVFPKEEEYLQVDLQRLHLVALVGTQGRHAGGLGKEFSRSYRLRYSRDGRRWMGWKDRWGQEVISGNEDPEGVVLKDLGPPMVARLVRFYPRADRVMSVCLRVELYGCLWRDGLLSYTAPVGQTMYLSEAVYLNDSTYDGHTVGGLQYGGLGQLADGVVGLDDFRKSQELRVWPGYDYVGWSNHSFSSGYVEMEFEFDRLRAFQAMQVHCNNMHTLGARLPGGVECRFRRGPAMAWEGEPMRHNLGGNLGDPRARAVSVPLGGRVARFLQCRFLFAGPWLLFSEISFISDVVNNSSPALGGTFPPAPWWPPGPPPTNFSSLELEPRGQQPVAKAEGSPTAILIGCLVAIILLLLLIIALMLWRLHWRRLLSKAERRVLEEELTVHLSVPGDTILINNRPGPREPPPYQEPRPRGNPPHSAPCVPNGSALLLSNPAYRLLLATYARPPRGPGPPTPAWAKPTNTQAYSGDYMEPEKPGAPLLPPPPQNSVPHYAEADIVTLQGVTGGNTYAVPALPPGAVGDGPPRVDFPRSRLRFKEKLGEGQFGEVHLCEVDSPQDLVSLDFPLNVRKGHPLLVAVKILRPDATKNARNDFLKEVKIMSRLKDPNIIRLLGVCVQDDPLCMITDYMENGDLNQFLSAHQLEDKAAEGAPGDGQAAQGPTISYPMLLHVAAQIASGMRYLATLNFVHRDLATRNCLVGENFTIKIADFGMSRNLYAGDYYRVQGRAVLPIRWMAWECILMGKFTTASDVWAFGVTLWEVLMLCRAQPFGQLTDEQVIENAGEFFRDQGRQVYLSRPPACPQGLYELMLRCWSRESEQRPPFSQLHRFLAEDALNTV

On to `Cc1ccc(-n2nc(C(C)(C)C)cc2NC(=O)Nc2nc(CCOCc3ccncc3)cs2)cc1`, for which the IC50 amounted to 19 nM in assay [1], 68 nM in assay [2], 65 nM in assay [3] and 2 nM in assay [5]. In assay [4], this molecule had a Kd of 63 nM.

`CC(C)(C)c1cc(NC(=O)Nc2ccc(Cl)cc2)n(-c2cccc(N)c2)n1`: the IC50 in assay [1] stood at 558 nM; in assay [5] it was 717 nM. Moreover, the Kd is 3.8 nM in assay [6], 15 nM in assay [7] and 15 nM in assay [4]. In addition, in assay [8], the outcome was Active.

As for `O=C(O)Cc1ccc(-n2nc(C3CCCC3)cc2NC(=O)Nc2nc(CCOCc3ccccc3)cs2)cc1`, the IC50 was 2170 nM in assay [1] and 1840 nM in assay [5]. This molecule yielded a Kd in assay [4] of over 1000 nM.

`COc1ccccc1NC(=O)c1sc2nc(C)c(C(=O)Nc3ccc(C)cc3C)c(-c3ccc(NC(C)=O)cc3)c2c1N` registered an equilibrium dissociation constant (Kd) in assay [4] of over 1000 nM.

`Nc1c(-c2ccccc2)oc2ccccc2c1=O`: the IC50 in assay [1] was 80800 nM; in assay [5], at least 100000 nM. This molecule also gave a Kd in assay [4] of over 1000 nM.

Consider `CC(C)(C)c1cc(NC(=O)Nc2nc(CCOCc3ccccc3)cs2)n(-c2cccc(CC(=O)O)c2)n1`, for which the IC50 turned out to be 10700 nM in assay [1] and 1670 nM in assay [5]. In addition, the Kd in assay [4] was over 1000 nM.

Consider `CC(C)(C)c1cc(NC(=O)Nc2ccc(Nc3ncnc4ccccc34)cc2)n(-c2cccc(N)c2)n1`, for which the IC50 in assay [1] amounted to 3 nM; in assay [3], 18 nM; in assay [5], 1 nM. In assay [4], this molecule came in with a Kd of 93 nM.

With `CC(C)(C)c1cc(NC(=O)Nc2nccs2)n(-c2ccc(CC(=O)O)cc2)n1`, the IC50 in assay [1] amounted to 9170 nM; in assay [5], 820 nM. In assay [4], this molecule gave a Kd of over 1000 nM.

`CCOCCNc1cccc(-n2nc(C(C)(C)C)cc2NC(=O)Nc2ccc(OCCN3CCOCC3)c3ccccc23)c1` came in with an IC50 in assay [1] of 14400 nM. Besides, in assay [4], the Kd is over 1000 nM.

Regarding `Cc1cccc(-n2nc(C(C)(C)C)cc2NC(=O)Nc2ccc(Cl)cc2)c1`, the IC50 was determined as 183 nM in assay [1] and 808 nM in assay [5]. The molecule also registered a Kd in assay [4] of 15 nM.

Regarding `CCC(=O)Nc1cccc(-n2nc(C(C)(C)C)cc2NC(=O)Nc2ccc(OCCN3CCOCC3)c3ccccc23)c1`, the concentration for half-maximal inhibition (IC50) came to 29 nM in assay [1] and 687 nM in assay [5]. This molecule also displayed a Kd in assay [4] of 30 nM.

For `CC(C)(C)c1cc(NC(=O)Nc2nc(CCOCc3ccccc3)cs2)n(-c2ccc(CC(=O)O)cc2)n1`, the IC50 in assay [1] amounted to 2230 nM; in assay [5] it was 670 nM. Further, the affinity in assay [4], expressed as Kd, was 382 nM.

As to `CC(C)(C)c1cc(NC(=O)Nc2ccc(Cl)cc2)n(-c2cccc([N+](=O)[O-])c2)n1`, the IC50 was determined as 856 nM in assay [1] and 1230 nM in assay [5]. The Kd in assay [4] was determined as 412 nM.

`CC(C)(C)c1cc(NC(=O)Nc2ccc(OCCN3CCOCC3)c3ccccc23)n(-c2cccc(N)c2)n1`: the IC50 in assay [1] was determined as 8 nM; in assay [5], 72 nM. In addition, the Kd in assay [4] came out at 20 nM.

Regarding `NC(=O)c1c(OCc2c(F)cc(Br)cc2F)nsc1NC(=O)NCCCCN1CCCC1` [OSI-632], the IC50 in assay [1] was 24 nM; in assay [5], 450 nM. In assay [4], this molecule showed a Kd of 422 nM.

In the case of `Cc1ccc(-n2nc(C(C)(C)C)cc2NC(=O)Nc2nccs2)cc1`, the IC50 in assay [1] stood at 4700 nM; in assay [5], 1150 nM. Moreover, binding in assay [4] was characterised by a dissociation constant (Kd) of 702 nM.

Regarding `CC(C)(C)c1cc(NC(=O)Nc2nc(CCOCc3ccc(F)cc3)cs2)n(-c2ccc(CC(=O)O)cc2)n1`, the IC50 in assay [1] stood at 1230 nM; in assay [5], 76 nM. In assay [4], this molecule returned a Kd of 424 nM.

For `CC(C)(C)c1cc(NC(=O)Nc2cccc3ccccc23)n(-c2cccc([N+](=O)[O-])c2)n1`, the IC50 is 332 nM in assay [1] and at least 100000 nM in assay [5]. Besides, the Kd in assay [4] was determined as 428 nM.

With `CC(C)(C)c1cc(NC(=O)Nc2cccc(Nc3ncnc4ccccc34)c2)n(-c2cccc(N)c2)n1`, the results for the IC50 in assay [1], in assay [3] and in assay [5] were 2 nM, 75 nM and 73 nM, respectively. Moreover, the Kd in assay [4] is over 1000 nM.

Take `Cc1ccc(-n2nc(C(C)(C)C)cc2NC(=O)Nc2nc(CCOCc3ccc(F)cc3)cs2)cc1`: the IC50 in assay [1] was 3040 nM; in assay [5], 230 nM. The same molecule displayed a Kd in assay [4] of 406 nM.

Turning to `O=C(O)Cc1cccc(-n2nc(C3CCCC3)cc2NC(=O)Nc2nc(CCOCc3ccccc3)cs2)c1`, the results for the IC50 in assay [1] and in assay [5] were 1560 nM and 380 nM, respectively. In assay [4], this molecule showed a Kd of 385 nM.

Regarding `Cc1ccc(-n2nc(C(C)(C)C)cc2NC(=O)Nc2cccc3ccccc23)cc1`, the 50% inhibitory concentration (IC50) in assay [1] is 408 nM; in assay [5], at least 100000 nM. In addition, the equilibrium dissociation constant (Kd) in assay [4] is 252 nM.

`O=C(Nc1ccc(OCCN2CCOCC2)c2ccccc12)c1cc(F)cc(N2CCOCC2)c1` registered an IC50 in assay [1] of 10900 nM. This molecule also displayed a Kd in assay [4] of 915 nM.

`CSc1ccc(-c2nc3cnccn3c2NC2CCCCC2)cc1` registered a Kd in assay [4] of over 1000 nM.

With `CC(C)(C)c1cc(NC(=O)Nc2ccccc2)n(-c2cccc(N)c2)n1`, the IC50 in assay [1] amounted to 9410 nM; in assay [5] it was 2500 nM. In assay [4], this molecule showed a Kd of over 1000 nM.

By IC50 is commonly meant the concentration that gives 50% inhibition. The Kd is the concentration at which binding is half-saturated.

Source of the values: ChEMBL document CHEMBL3259697, “Identification of type II and III DDR2 inhibitors” (J Med Chem, 2014).
